# Values of other authors, collected in paper PMC2810227, “3-O-Methylfunicone, a Selective Inhibitor of Mammalian Y-Family DNA Polymerases from an Australian Sea Salt Fungal Strain” (Marine Drugs, 2009).
# Experiments:
# [1] = tested on: pol α; set-up: method as in PMID 467434; details: not competing with the other three deoxynucleoside triphosphates; cited from earlier work
# [2] = tested on: family B pols, such as pols α, δ and ɛ; set-up: method as in PMID 467434; details: cited from earlier work
structure (smiles),measurement,setting,value
C[C@@]1(CO)[C@H](O)CC[C@@]2(C)[C@H]1CC[C@H]1C[C@@H]3C[C@@]12CC[C@]3(O)CO [aphidicolin],mode of inhibition of pol α with respect to individual deoxynucleoside triphosphates,[1],competing with dCTP
same,mode of inhibition with the DNA template-primer,[2]; activated DNA,uncompetitive
same,mode of inhibition with respect to the dNTP substrate,[2],competitive
